Results as given in US20210238528A1, “CELL SCAFFOLD MATERIAL” (Stem Cell & Device Laboratory, Inc., priority 2018, published 2021).

Tested on: myocardial cells derived from human iPS cells
Experiment: Drug response of myocardial cells determined with MEA probe
Conditions: for Drug response, Oriented fiber sheet 2: myocardial cells cultured 7 days with oriented fiber sheet 2, pitch 10 μm

COc1ccc(CCN(C)CCCC(C#N)(c2ccc(OC)c(OC)c2)C(C)C)cc1OC (stereo not shown) [Verapamil]
arrest (division stop) (0.3 μM verapamil, myocardial cells directly cultured on MEA probe): arrest (division stop) occurred | Drug response, Oriented fiber sheet 2: No arrest occurred. | Drug response, Oriented fiber sheet 2 (listed as verapamil): no an arrest (division stop) occurred | Drug response, MEA probe (myocardial cells cultured directly on MEA probe): Arrest occurred.
